Reference: patent publication US20230295118A1 (EnhancedBio Inc., priority 2022, published 2023)

Experiments:
Type in all cases: cell-based
[1] = test system: mantle cell lymphoma cell (Mino or JeKo-1); assay: Antiproliferative effect, MTS cell viability assay; details: 72 h; for IC50: mantle cell lymphoma cell (Mino or JeKo-1), MTS assay, read-out: IC50 (anti-proliferation)
Protocol: Antiproliferative effect of the exemplary compounds was assessed in B-cell malignancy models.
To assess the effect of the exemplary compounds on cell viability in B-cell malignancy models by degradation of CDK4/6 proteins, Mino cells were treated with varying concentrations of exemplary compounds (0, 0.0001, 0.001, 0.01, 0.1, 1 μM) or positive control (palbociclib and abemaciclib). Under these conditions, cell viability was determined by an MTS assay. Cytotoxicity was assayed by the determination of reduced tetrazolium (formazan) created by metabolically active cells as detected at 490 nanometers (nm) absorbance using a microplate reader (BMG Labtech, Cary, NC, USA).
The exemplary compounds attenuated the viability of Mino cells in a concentration-dependent manner at 72 h post treatment. Results are shown in Table 1 and FIGS. 2-15 for each exemplary compound.

[2] = target: T1, CDK6 (Homo sapiens, UniProt Q00534); assay: CDK6 degradation (DC50, Dmax)
T1 construct: endogenous in cells

[3] = target: T2, CDK4 (Homo sapiens, UniProt P11802); assay: CDK4 degradation (DC50, Dmax)
T2 construct: endogenous in cells
T2 sequence (P11802 whole entry): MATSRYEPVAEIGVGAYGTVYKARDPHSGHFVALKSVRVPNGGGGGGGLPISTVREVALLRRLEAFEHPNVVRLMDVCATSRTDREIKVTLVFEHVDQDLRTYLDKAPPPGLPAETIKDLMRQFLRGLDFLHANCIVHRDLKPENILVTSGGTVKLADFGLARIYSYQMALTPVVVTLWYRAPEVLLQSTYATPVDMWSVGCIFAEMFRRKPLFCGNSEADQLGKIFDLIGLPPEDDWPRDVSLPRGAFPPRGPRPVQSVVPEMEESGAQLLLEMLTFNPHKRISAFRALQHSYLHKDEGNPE

T1 sequence (Q00534 whole entry): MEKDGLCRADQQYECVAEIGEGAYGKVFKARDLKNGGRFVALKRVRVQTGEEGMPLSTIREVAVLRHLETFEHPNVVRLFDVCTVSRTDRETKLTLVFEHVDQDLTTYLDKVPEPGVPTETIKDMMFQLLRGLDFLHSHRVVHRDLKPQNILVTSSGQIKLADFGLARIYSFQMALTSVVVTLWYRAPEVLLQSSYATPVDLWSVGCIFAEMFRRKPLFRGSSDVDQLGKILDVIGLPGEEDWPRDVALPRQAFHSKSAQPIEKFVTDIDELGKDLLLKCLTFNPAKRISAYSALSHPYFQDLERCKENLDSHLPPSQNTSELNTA

| SMILES | IC50 [1] | DC50 [2] | Dmax [2] | DC50 [3] | Dmax [3] | inhibition of cell proliferation of Mino cells ([1]; Mino cells, 0-1 μM, result in words) |
| --- | --- | --- | --- | --- | --- | --- |
| CC(=O)c1c(C)c2cnc(Nc3ccc(N4CCN(C(=O)N5CCC(CCN6CCN(c7ccc8c(c7)CN(C7CCC(=O)NC7=O)C8=O)CC6)CC5)CC4)cn3)nc2n(C2CCCC2)c1=O (stereo not shown) [Compound 20, 3-(5-(4-(2-(1-(4-(6-((6-acetyl-8-cyclopentyl-5-methyl-7-oxo-7,8-dihydropyrido[2,3-d]pyrimidin-2-yl)amino)pyridin-3-yl)piperazine-1-carbonyl)piperidin-4-yl)ethyl)piperazin-1-yl)-1-oxoisoindolin-2-yl)piperidine-2,6-dione] | 50 to 200 nM | 50 to 200 nM | > 60% | 50 to 200 nM | > 60% |  |
| Cc1nc2c(F)cc(-c3nc(Nc4ccc(CN5CCN(c6cccc7c6C(=O)N(C6CCC(=O)NC6=O)C7=O)CC5)cn4)ncc3F)cc2n1C(C)C (stereo not shown) [Compound 101, 2-(2,6-dioxopiperidin-3-yl)-4-(4-((6-((5-fluoro-4-(4-fluoro-1-isopropyl-2-methyl-1H-benzo[d]imidazol-6-yl)pyrimidin-2-yl)amino)pyridin-3-yl)methyl)piperazin-1-yl)isoindoline-1,3-dione] | 50 to 200 nM | 50 to 200 nM | > 80% | 50 to 200 nM | > 60% |  |
| Cc1nc2c(F)cc(-c3nc(Nc4ccc(CN5CCN(C6CN(c7cccc8c7C(=O)N(C7CCC(=O)NC7=O)C8=O)C6)CC5)cn4)ncc3F)cc2n1C(C)C (stereo not shown) [Compound 98, 2-(2,6-dioxopiperidin-3-yl)-4-(3-(4-((6-((5-fluoro-4-(4-fluoro-1 isopropyl-2-methyl-1H-benzo[d]imidazol-6-yl)pyrimidin-2-yl)amino)pyridin-3-yl)methyl)piperazin-1-yl)azetidin-1-yl)isoindoline-1,3-dione] | 50 to 200 nM | 50 to 200 nM | > 80% | 50 to 200 nM | > 80% |  |
| CC(=O)c1c(C)c2cnc(Nc3ccc(N4CCN(C(=O)N5CCN(C6CCN(c7ccc8c(c7)C(=O)N(C7CCC(=O)NC7=O)C8=O)CC6)CC5)CC4)cn3)nc2n(C2CCCC2)c1=O (stereo not shown) [Compound 5, 5-(4-(4-(4-(6-((6-acetyl-8-cyclopentyl-5-methyl-7-oxo-7,8-dihydropyrido[2,3-d]pyrimidin-2-yl)amino)pyridin-3-yl)piperazine-1-carbonyl)piperazin-1-yl)piperidin-1-yl)-2-(2,6-dioxopiperidin-3-yl)isoindoline-1,3-dione] | 50 to 200 nM | > 200 nM | > 60% | > 200 nM | > 60% |  |
| CC(=O)c1c(C)c2cnc(Nc3ccc(N4CCN(C(=O)N5CCN(CCN6CCN(c7ccc8c(c7)C(=O)N(C7CCC(=O)NC7=O)C8=O)CC6)CC5)CC4)cn3)nc2n(C2CCCC2)c1=O (stereo not shown) [Compound 21, 5-(4-(2-(4-(4-(6-((6-acetyl-8-cyclopentyl-5-methyl-7-oxo-7,8-dihydropyrido[2,3-d]pyrimidin-2-yl)amino)pyridin-3-yl)piperazine-1-carbonyl)piperazin-1-yl)ethyl)piperazin-1-yl)-2-(2,6-dioxopiperidin-3-yl)isoindoline-1,3-dione] | 50 to 200 nM | 50 to 200 nM | > 60% | 50 to 200 nM | > 60% |  |
| Cc1nc2c(F)cc(-c3nc(Nc4ccc(CN5CCN(CC6CCN(c7ccc(C(=O)NC8CCC(=O)NC8=O)cc7)CC6)CC5)cn4)ncc3F)cc2n1C(C)C (stereo not shown) [Compound 151, N-(2,6-dioxopiperidin-3-yl)-4-(4-((4-((6-((5-fluoro-4-(4-fluoro-1-isopropyl-2-methyl-1H-benzo[d]imidazol-6-yl)pyrimidin-2-yl)amino)pyridin-3-yl)methyl)piperazin-1-yl)methyl)piperidin-1-yl)benzamide] | < 50 nM | 50 to 200 nM | > 60% | 50 to 200 nM | > 80% |  |
| CC(=O)c1c(C)c2cnc(Nc3ccc(N4CCN(CC5CCN(c6ccc(N7CCC(=O)NC7=O)cc6)CC5)CC4)cn3)nc2n(C2CCCC2)c1=O [Compound 112, 1-(4-(4-((4-(6-((6-acetyl-8-cyclopentyl-5-methyl-7-oxo-7,8-dihydropyrido[2,3-d]pyrimidin-2-yl)amino)pyridin-3-yl)piperazin-1-yl)methyl)piperidin-1-yl)phenyl) dihydropyrimidine-2,4(1H,3H)-dione] | < 50 nM | 50 to 200 nM | > 80% | < 50 nM | > 80% |  |

More lines, main results first:

| IC50 [1] | DC50 [2] | Dmax [2] | DC50 [3] | Dmax [3] | SMILES | inhibition of cell proliferation of Mino cells ([1]; Mino cells, 0-1 μM, result in words) |
| --- | --- | --- | --- | --- | --- | --- |
| < 50 nM | 50 to 200 nM | > 60% | < 50 nM | > 80% | CC(=O)c1c(C)c2cnc(Nc3ccc(N4CCN(C(=O)C5CCN(c6ccc(NC7CCC(=O)NC7=O)cc6)CC5)CC4)cn3)nc2n(C2CCCC2)c1=O (stereo not shown) [Compound 117, 3-((4-(4-(4-(6-((6-acetyl-8-cyclopentyl-5-methyl-7-oxo-7,8-dihydropyrido[2,3-d]pyrimidin-2-yl)amino)pyridin-3-yl)piperazine-1-carbonyl)piperidin-1-yl)phenyl)amino) piperidine-2,6-dione] |  |
| < 50 nM | 50 to 200 nM | > 80% | 50 to 200 nM | > 60% | CC(=O)c1c(C)c2cnc(Nc3ccc(N4CCN(C5CCN(C(=O)Nc6ccc7c(c6)CN(C6CCC(=O)NC6=O)C7=O)CC5)CC4)cn3)nc2n(C2CCCC2)c1=O (stereo not shown) [Compound 40, 4-(4-(6-((6-acetyl-8-cyclopentyl-5-methyl-7-oxo-7,8-dibydropyrido[2,3-d]pyrimidin-2-yl)amino)pyridin-3-yl)piperazin-1-yl)-N-(2-(2,6-dioxopiperidin-3-yl)-1-oxoisoindolin-5-yl)piperidine-1-carboxamide] |  |
| < 50 nM | 50 to 200 nM | > 80% | 50 to 200 nM | > 80% | Cc1nc2c(F)cc(-c3nc(Nc4ccc(CC5CCN(CC6CN(c7ccc(NC8CCC(=O)NC8=O)cc7)C6)CC5)cn4)ncc3F)cc2n1C(C)C (stereo not shown) [Compound 142, 3-((4-(3-((4-((6-((5-fluoro-4-(4-fluoro-1-isopropyl-2-methyl-1H-benzo[d]imidazol-6-yl)pyrimidin-2-yl)amino)pyridin-3-yl)methyl)piperidin-1-yl)methyl)azetidin-1-yl)phenyl)amino) piperidine-2,6-dione] |  |
| < 50 nM | 50 to 200 nM | > 60% | < 50 nM | > 80% | Cc1nc2c(F)cc(-c3nc(Nc4ccc(CN5CCN(C(=O)C6CN(c7ccc8c(c7)C(=O)N(C7CCC(=O)NC7=O)C8=O)C6)CC5)cn4)ncc3F)cc2n1C(C)C (stereo not shown) [Compound 135, 2-(2,6-dioxopiperidin-3-yl)-5-(3-(4-((6-((5-fluoro-4-(4-fluoro-1-isopropyl-2-methyl-1H-benzo[d]imidazol-6-yl)pyrimidin-2-yl)amino)pyridin-3-yl)methyl)piperazine-1-carbonyl)azetidin-1-yl)isoindoline-1,3-dione] |  |
| < 50 nM | < 50 nM | > 80% | < 50 nM | > 80% | Cc1nc2c(F)cc(-c3nc(Nc4ccc(CN5CCN(CC6CN(c7ccc(C(=O)NC8CCC(=O)NC8=O)cc7)C6)CC5)cn4)ncc3F)cc2n1C(C)C (stereo not shown) [Compound 133, N-(2,6-dioxopiperidin-3-yl)-4-(3-((4-((6-((5-fluoro-4-4-fluoro-1-isopropyl-2-methyl-1H-benzo[d]imidazol-6-yl)pyrimidin-2-ylamino)pyridin-3-yl)methyl)piperazin-1-yl)methyl)azetidin-1-yl)benzamide] |  |
| < 50 nM | < 50 nM | > 80% | < 50 nM | > 80% | CN(C)C(=O)c1cc2cnc(Nc3ccc(N4CCN(CCCNc5ccc6c(c5)CN(C5CCC(=O)NC5=O)C6=O)CC4)cn3)nc2n1C1CCCC1 (stereo not shown) [Compound 76, 7-cyclopentyl-2-((5-(4-(3-((2-(2,6-dioxopiperidin-3-yl)-1-oxoisoindolin-5-yl)amino)propyl)piperazin-1-yl)pyridin-2-yl)amino)-N,N-dimethyl-7H-pyrrolo[2,3-d]pyrimidine-6-carboxamide] | dose-dependent inhibition of cell proliferation |
| < 50 nM | < 50 nM | > 80% | < 50 nM | > 80% | Cc1nc2c(F)cc(-c3nc(Nc4ccc(CN5CCN(C6CN(c7ccc8c(c7)CN(C7CCC(=O)NC7=O)C8=O)C6)CC5)cn4)ncc3F)cc2n1C(C)C (stereo not shown) [Compound 97, 3-(5-(3-(4-((6-((5-fluoro-4-(4-fluoro-1-isopropyl-2-methyl-1H-benzo[d]imidazol-6-yl)pyrimidin-2-yl)amino)pyridin-3-yl)methyl)piperazin-1-yl)azetidin-1-yl)-1-oxoisoindolin-2-yl)piperidine-2,6-dione] |  |
| < 50 nM | < 50 nM | > 80% | < 50 nM | > 80% | CC(=O)c1c(C)c2cnc(Nc3ccc(N4CCN(CC5CN(c6ccc7c(c6)CN(C6CCC(=O)NC6=O)C7=O)C5)CC4)cn3)nc2n(C2CCCC2)c1=O (stereo not shown) [Compound 118, 3-(5-(3-((4-(6-((6-acetyl-8-cyclopentyl-5-methyl-7-oxo-7,8-dihydropyrido[2,3-d]pyrimidin-2-yl)amino)pyridin-3-yl)piperazin-1-yl)methyl)azetidio-1-yl)-1-oxoisoindolin-2-yl)piperidine-2,6-dione] |  |
